Measurements from ChEMBL document CHEMBL5543109, “Novel β-Hairpin Antimicrobial Peptide Containing the β-Turn Sequence of -NG- and the Tryptophan Zippers Facilitate Self-Assembly into Nanofibers, Exhibiting Excellent Antimicrobial Performance” (J Med Chem, 2024).
Values after ≈ are worked out from the molar mass of the structure shown. Active and inactive are the calls of the source. The calls are words filed in the database; no cut-off is given here.

Assays:
Staphylococcus aureus [1] = assay: Antibacterial activity against Staphylococcus aureus 794 infected in BALB/c mouse skin wound infection model assessed as reduction in wound area at 1 mg/ml, ip pre-infected with bacteria for 24 hrs followed by compound addition and measured on day 9 to 13; type: functional, organism-based; conditions: time 9-13 day
Pseudomonas aeruginosa [2] = assay: Antibacterial activity against Pseudomonas aeruginosa incubated for 18 hrs in presence of CaCl2 by broth microdilution method; type: functional, organism-based
Staphylococcus aureus [3] = assay: Synergistic antibacterial activity against methicillin resistant Staphylococcus aureus 113 assessed as fractional inhibitory concentration index incubated for 18 hrs in presence of kanamycin by checkerboard assay; type: functional
Staphylococcus aureus [4] = assay: Antibacterial activity against Staphylococcus aureus S125 incubated for 18 hrs by broth microdilution method; type: functional
Staphylococcus aureus [5] = assay: Antibacterial activity against Staphylococcus aureus 794 infected in BALB/c mouse skin wound infection model assessed as reduction in wound area at 1 mg/ml, ip pre-infected with bacteria for 24 hrs followed by compound addition and measured on day 5; type: functional, organism-based; conditions: time 5.0 day
Pseudomonas aeruginosa [6] = assay: Antibacterial activity against Pseudomonas aeruginosa incubated for 18 hrs in presence of NaCl by broth microdilution method; type: functional, organism-based
Staphylococcus aureus [7] = assay: Additive antibacterial activity against methicillin resistant Staphylococcus aureus 113 assessed as fractional inhibitory concentration index incubated for 18 hrs in presence of ciprofloxacin by checkerboard assay; type: functional
Escherichia coli [8] = assay: Synergistic antibacterial activity against kanamycin resistant Escherichia coli assessed as fractional inhibitory concentration index incubated for 18 hrs in presence of gentamycin by checkerboard assay; type: functional
Escherichia coli [9] = assay: Antibacterial activity against Escherichia coli incubated for 18 hrs by broth microdilution method; type: functional
Klebsiella pneumoniae [10] = assay: Additive antibacterial activity against Klebsiella pneumoniae assessed as fractional inhibitory concentration index incubated for 18 hrs in presence of kanamycin by checkerboard assay; type: functional
Staphylococcus aureus [11] = assay: Antibacterial activity against Staphylococcus aureus 794 infected in BALB/c mouse skin wound infection model assessed as wound healing at 1 mg/ml, ip pre-infected with bacteria for 24 hrs followed by compound addition and measured on day 11; type: functional; conditions: time 11 day
[12] = Self-assembly property of compound in PBS assessed as critical aggregation concentration incubated for 48 hrs; type: physicochemical; conditions: buffer
Escherichia coli [13] = assay: Antibacterial activity against kanamycin resistant Escherichia coli incubated for 18 hrs by broth microdilution method; type: functional
Staphylococcus aureus [14] = assay: Antibacterial activity against Staphylococcus aureus 794 infected in BALB/c mouse skin wound infection model assessed as wound healing by measuring thickened scab at 1 mg/ml, ip pre-infected with bacteria for 24 hrs followed by compound addition and measured on day 9; type: functional, organism-based; conditions: time 9.0 day
Klebsiella pneumoniae [15] = assay: Bactericidal activity against Klebsiella pneumoniae at 2 times MIC within 90 mins; type: functional; conditions: 1.5 h
Pseudomonas aeruginosa [16] = assay: Antibacterial activity against Pseudomonas aeruginosa incubated for 18 hrs in presence of FeCl3 by broth microdilution method; type: functional, organism-based
[17] = Acute toxicity in mouse assessed as mortality rate at 200 mg/kg, ip by karber method; type: organism-based; conditions: in vivo, read-out: Activity
[18] = Acute toxicity in mouse assessed as cell swelling at 230.5 mg/kg, ip by H and E staining based assay; type: organism-based; conditions: in vivo
Cell membrane [19] = assay: Induction of cytoplasmic membrane depolarization in Staphylococcus aureus at 2 to 4 times MIC by DiSC3-5 dye based fluorescence method; type: cell membranes
Pseudomonas aeruginosa [20] = assay: Antibacterial activity against Pseudomonas aeruginosa incubated for 18 hrs in presence of KCl by broth microdilution method; type: functional, organism-based
Escherichia coli [21] = assay: Antibacterial activity against Escherichia coli infected in BALB/c mouse systemic infection model assessed as reduction in liver bacterial load at 5 to 10 mg/kg, ip measured after 24 hrs; type: functional, organism-based; conditions: dose 5-10 mg/kg
[22] = Acute toxicity in mouse assessed as tissue hemorrhage at 230.5 mg/kg, ip by H and E staining based assay; type: organism-based; conditions: in vivo
Cell membrane [23] = assay: Induction of inner membrane permeabilization in Escherichia coli ML-35 […] measured every 5 mins for 120 mins by ONPG dye based assay; type: cell membranes
[24] = system: Staphylococcus epidermidis; assay: Bactericidal activity against Staphylococcus epidermidis ATCC 12228 incubated for 18 hrs by broth microdilution method; type: functional
Staphylococcus aureus [25] = assay: Synergistic antibacterial activity against Staphylococcus aureus 794 assessed as fractional inhibitory concentration index incubated for 18 hrs in presence of cefotaxime by checkerboard assay; type: functional
Cell membrane [26] = assay: Induction of inner membrane permeabilization in Escherichia coli ML-35 at 1 to 4 times MIC measured every 5 mins for 120 mins by ONPG dye based assay; type: cell membranes
Escherichia coli [27] = assay: Antibacterial activity against kanamycin resistant Escherichia coli assessed as fractional inhibitory concentration index incubated for 18 hrs in presence of streptomycin by checkerboard assay; type: functional
[28] = Stability in mouse serum assessed as half-life measured upto 48 hrs by RP-HPLC analysis; type: ADME, cell-free
Staphylococcus aureus [29] = assay: Additive antibacterial activity against methicillin resistant Staphylococcus aureus 75 assessed as fractional inhibitory concentration index incubated for 18 hrs in presence of streptomycin by checkerboard assay; type: functional

In the case of `NCCCC[C@@H](NC(=O)[C@H](N)Cc1c[nH]c2ccccc12)C(=O)N[C@H](Cc1c[nH]c2ccccc12)C(=O)N[C@H](CCCCN)C(=O)N[C@H](Cc1c[nH]c2ccccc12)C(=O)N[C@@H](CC(N)=O)C(=O)NCC(=O)N[C@H](Cc1c[nH]c2ccccc12)C(=O)N[C@H](CCCCN)C(=O)N[C@H](Cc1c[nH]c2ccccc12)C(=O)N[C@H](CCCCN)C(=O)N[C@H](Cc1c[nH]c2ccccc12)C(N)=O`, the Activity (Staphylococcus aureus [1]) is reported as “Active”, the Activity (Pseudomonas aeruginosa [2]) is reported as “Active” and the “fractional inhibitory concentration index (FICI)” value (Staphylococcus aureus [3]) is reported as 0.5. For the same compound, the MIC (Staphylococcus aureus [4]) was 8 µM (≈ 14.5 µg/mL), the Activity (Staphylococcus aureus [5]) was “Active” and the Activity (Pseudomonas aeruginosa [6]) was “Active”. For the same compound, the “fractional inhibitory concentration index (FICI)” value (Staphylococcus aureus [7]) was 1, the “fractional inhibitory concentration index (FICI)” value (Escherichia coli [8]) was 0.188 and the MIC (Escherichia coli [9]) was 8 µM (≈ 14.5 µg/mL). The “fractional inhibitory concentration index (FICI)” value (Klebsiella pneumoniae [10]) was 0.563, the Activity (Staphylococcus aureus [11]) was 100% and the CAC [12] was 7.78 µM. The MIC (Escherichia coli [13]) was 16 µM (≈ 29.1 µg/mL), the Activity (Staphylococcus aureus [14]) was “Active” and the Activity (Klebsiella pneumoniae [15]) was 100%. For the same compound, the Activity (Pseudomonas aeruginosa [16]) was “Active”, the mortality [17] was 20% and the Activity [18] was “Toxic”. For the same compound, the Activity (Cell membrane [19]) was “Active”, the Activity (Pseudomonas aeruginosa [20]) was “Active” and the Activity (Escherichia coli [21]) was “Active”. The Activity [22] was “Toxic”, the Activity (Cell membrane [23]) was “Dose-Dependent Effect” and the MBC [24] was 4 µM (≈ 7.27 µg/mL). The “fractional inhibitory concentration index (FICI)” value (Staphylococcus aureus [25]) was 0.313, the Activity (Cell membrane [26]) was “Active” and the “fractional inhibitory concentration index (FICI)” value (Escherichia coli [27]) was 0.188. The half-life [28] was over 48 h and the “fractional inhibitory concentration index (FICI)” value (Staphylococcus aureus [29]) was 0.75.
